{"source": "patent US20090023780A1", "about": "(priority 2000, published 2009)", "system": "Sprague-Dawley rats", "experiment": "Phase 1: specific effects of gacyclidine on the nociceptive threshold in rats (modified Randall-Selitto test)", "type": "in vivo, rat", "conditions": "for analgesic effect per se: 0.1 mg/kg", "procedure": "All the experiments are carried out on Sprague-Dawley rats weighing 350-400 g; each experimental phase is carried out according to a similar plan: each experimental phase is carried out on 6 groups of 12 rats including one group of control animals. The test adopted to measure the nociceptive threshold is the Randall-Selitto Test modified according to Kayser et al. (1990) (Kayser V., Basbaum A. I. and Guilbaud G.,\nDeafferentation in the rat increase mechanical nociceptive threshold in the innervated limbs; Brain research ([…]), 508, 329-332), using a mechanical stimulus of increasing intensity (expressed in grams), the retained evoked response being the cry of the animal.\nThe general plan for an experimental phase is as follows: • arrival and housing of the animals: 4 days; • preparation of the animals allowing them to become familiar with the investigator and the experimental conditions and measurements in order to avoid any possibility of measurement bias being induced by stress: 14 days; • preparation and insertion of the catheters: 9 days; • post-operative rest (with antibiotic treatment) and determination of the stability of the experimental measurements (basic nociceptive threshold): 4 days; • testing of response to the different active ingredients: 9 days.\nThe 3 doses of gacyclidine retained: 0.1, 0.3 and 1 mg/kg, are injected by venous route using the catheter introduced into a jugular vein.\nAll the results are analyzed according to an ANOVA test.\nPhase 1: study of the specific effects of gacyclidine on the nociceptive threshold in rats.\n3 series of experiments each including 2 groups of animals of 12 rats are set up. • 1st series of experiments: • 1st group: the animals receive an injection of physiological saline solution. • 2nd group: the animals receive a dose of 0.1 mg/kg of gacyclidine.\n2nd series of experiments: • 1st group: the animals receive an injection of physiological saline solution. • 2nd group: the animals receive a dose of 0.3 mg/kg of gacyclidine.\n3rd series of experiments: • 1st group: the animals receive an injection of physiological saline solution. • 2nd group: the animals receive a dose of 1 mg/kg of gacyclidine.\nAll the animals in the 3 series of experiments are prepared during the same phase. The day of administration of the gacyclidine (or of the physiological saline solution) for each series is deferred by only 3 days in order to follow the evolution of the nociceptive threshold for several days following the administration of the pharmaceutical substances. The measurement of the nociceptive threshold is carried out over at least 4 hours after the injection of gacyclidine, at the rate of one measurement every 30 minutes then daily for at least one week.", "key": {"[1]": {"conditions": "gacyclidine alone, 0.1 mg/kg i.v."}}, "data": [{"substance": "1-[cis-2-methyl-1-(2-thienyl)cyclohexyl]piperidine [gacyclidine]", "values": [{"measurement": "psychomotor effect", "setting": "doses of 0.1 and 0.3 mg/kg", "value": "does not have any psychomotor effect"}, {"measurement": "motor effect per se", "setting": "[1]", "value": "neither analgesic effect nor motor effect"}, {"measurement": "analgesic effect per se", "setting": "[1]", "value": "neither analgesic effect nor motor effect"}, {"measurement": "analgesic effect per se", "setting": "gacyclidine alone, 0.1 mg/kg i.v., listed as thienylcyclohexylamine", "value": "does not per se cause any analgesic effect"}, {"measurement": "duration of analgesic effect (nociceptive threshold)", "setting": "gacyclidine alone, 0.3 mg/kg i.v.", "value": 30, "unit": "min"}, {"measurement": "duration of analgesic effect (nociceptive threshold)", "setting": "gacyclidine alone, 1 mg/kg i.v.", "value": "first hour"}, {"measurement": "motor effects", "setting": "gacyclidine alone, 1 mg/kg i.v. (strongest dose used)", "value": "induces motor effects"}]}]}
